Data on one compound can be found in PMC12501029, “Discovery of a CNS active GSK3 degrader using orthogonally reactive linker screening” (Nature Communications, 2025).

Where two headings read alike, the source gives them in different places.

The nature of data set [1]: KH1 (24) intravenous PK/PD study: blood and brain levels, observation. Format: in vivo, female Balb/c mice. The procedure: The intravenous formulation for KH1 (24) was prepared by dissolving the compound in DMSO. This was then diluted with PEG400, followed by dropwise addition of sterile water to form a complete solution. The resulting formulation consisted of 5% DMSO, 40% PEG400, and 55% water, and contained KH1 (24) at a concentration of 1.0 mg/mL.
For the PK/PD study for KH1 (24), three female Balb/c mice were given a bolus intravenous injection at a dose level of 5 mg/kg (5 mL/kg). Animals were observed regularly after dose administration. At 4 h after the administration of KH1 (24), all animals were placed under terminal anaesthesia with isoflurane. Blood was collected via cardiac puncture and the brain and liver were removed. Two aliquots of 10 µL blood were each diluted into 90 µL of Milli-Q ultrapure water. All diluted blood samples were stored at −20 °C prior to bioanalysis. A portion of the brain was stored at −20 °C awaiting bioanalysis, while the remaining brain and liver tissues were snap-frozen in liquid nitrogen and stored at −80 °C awaiting biological investigation. The concentration of KH1 (24) in whole blood and brain tissue was determined via UPLC-MS/MS.
Blood samples (10 µL) from study mice were diluted 1× with 90 µL of water immediately when the sample was taken. All calibration, quality control, blanks and double blank samples (all 100 µL volume) were mixed (vortexed) with 300 µL of LCMS grade acetonitrile to precipitate proteins.
For study samples, a volume (30 µL) was mixed (vortexed) with a volume (90 µL) of acetonitrile to precipitate proteins. After protein precipitation, all samples were centrifuged to pellet the proteins. Study samples in Micronics tubes were centrifuged using a Beckman Coutler Allegra C-12R Centrifuge for 10 min at 3750 rpm. All other samples in Eppendorf tubes were centrifuged using a Sigma SciQuip 1–14 centrifuge for 10 min (14,800 rpm/16,163 × g). Supernatant from study samples (80 µL) and calibration samples, QCs, blanks, and double blanks (200 µL) were then transferred to HPLC glass vials containing Milli-Q water (40 µL or 100 µL, respectively), ready for LCMS analysis.

The target in data set [2] is T1, GSK3β-HiBiT (GSK3β-HiBiT KI HEK293 cells) (Homo sapiens, UniProt P49841).
T1 construct: we generated endogenously tagged GSK3β-HiBiT knock-in (KI) HEK293 cells; endogenous in cells; host or cells: GSK3β-HiBiT knock-in HEK293 cells (CRISPR/Cas9, single-cell clone)
T1 sequence (P49841 whole entry): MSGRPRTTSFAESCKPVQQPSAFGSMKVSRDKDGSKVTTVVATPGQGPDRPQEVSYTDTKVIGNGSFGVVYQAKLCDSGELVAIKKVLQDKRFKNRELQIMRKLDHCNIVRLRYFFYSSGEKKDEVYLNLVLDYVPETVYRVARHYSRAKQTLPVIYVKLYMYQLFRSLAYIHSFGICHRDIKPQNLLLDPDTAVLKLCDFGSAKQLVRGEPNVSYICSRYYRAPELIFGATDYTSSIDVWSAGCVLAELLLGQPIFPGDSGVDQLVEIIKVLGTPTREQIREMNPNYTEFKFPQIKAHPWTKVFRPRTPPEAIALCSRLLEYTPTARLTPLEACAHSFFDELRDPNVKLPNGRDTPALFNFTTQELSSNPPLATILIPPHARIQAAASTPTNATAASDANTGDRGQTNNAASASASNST
The data set can be described thus: Serum shift assay (10% FBS or 10% mouse serum). It is filed as cell-based. The procedure: Test compounds were serially diluted into white bottom opaque tissue culture grade 384-well assay plates (Perkin Elmer) using Echo500 (Labcyte) and GSK3β-HiBiT KI HEK293 cells were seeded at a density of 5 × 10^3 cells per well either in 50 µL of DMEM supplemented with regular 10% FBS (Gibco) or instead 10% mouse serum (Balb/C) and plates were incubated for compound treatment in incubators at 37 °C. After 24 h of compound treatment, HiBiT lytic reagents (Promega) prepared according to manufacturers’ instructions were added into plates and luminescence signal was measured on a PheraStar plate reader (BMG) and data analysed using GraphPad Prism (v10.1.2) as previously described above.

On to `Cn1nc(N2CCC(=O)NC2=O)c2ccc(CN3CCN(Cc4ccc(-c5cn(-c6ccc(-c7cn8nccc(C(=O)Nc9cnccc9N9CCOCC9)c8n7)cc6)nn5)nc4)CC3)cc21` [compound 24], for which the “adverse signs in vivo” value in data set [1] (5 mg/kg IV study and the lower IV/PO study) is “no adverse signs”. For the same compound, the Kp at 4 h in data set [1] (female, Balb/c, mouse, brain / whole blood, intravenous, 5 mg/kg i.v., 4 hours, read-out: Brain:Blood Ratio) is 0.1. Besides, the concentration at 4 h in data set [1] (female, Balb/c, mouse, brain, intravenous, 5 mg/kg i.v., 4 hours, read-out: Mean Brain Concentration) is 68 nM; in data set [1] (female, Balb/c, mouse, whole blood, intravenous, 5 mg/kg i.v., 4 hours, read-out: Mean Blood Concentration), 696 nM. Further, the DC50 in data set [2] (10% foetal bovine serum (FBS), 24 h) was found to be 1.3 nM; in data set [2] (10% mouse serum (MS), 24 h), 10.4 nM. In addition, in data set [2] (HEK293, 10% foetal bovine serum (FBS), 24 h), the Dmax was determined as 89%. In addition, the “predicted shift in whole blood” value in data set [2] (extrapolated from 10% mouse serum shift) is ~ 80 ×. Further, the “free fraction in mouse plasma from serum shift” value in data set [2] (extrapolated from serum shift assay) is ~ 1.2%.
